Assay: xn = mol fraction of the nth substance listed
Details: 101 kPa, Liquid; for viscosity: Capillary tube (Ostwald / Ubbelohde) method; for mass density: Vibrating tube method

CCCCCC(C)O (stereo not given) [2-heptanol] + CCC(C)=O
Details | mass density, 298.15 K [kg/m3] | mass density, 303.15 K [kg/m3] | mass density, 308.15 K [kg/m3] | mass density, 313.15 K [kg/m3] | viscosity, 298.15 K [mPa·s] | viscosity, 303.15 K [mPa·s] | viscosity, 308.15 K [mPa·s] | viscosity, 313.15 K [mPa·s]
x2 = 0 | 813.18 | 809.26 | 805.01 | 801.14 | 5.003 | 4.152 | 3.478 | 2.853
x2 = 0.0834 | 811.4 | 807.5 | 803.22 | 799.4 | 3.89 | 3.282 | 2.749 | 2.282
x2 = 0.1619 | 809.92 | 805.97 | 801.7 | 797.73 | 3.091 | 2.614 | 2.21 | 1.846
x2 = 0.2426 | 808.4 | 804.47 | 800.16 | 796.12 | 2.441 | 2.083 | 1.758 | 1.478
x2 = 0.3491 | 806.63 | 802.53 | 798.16 | 794.11 | 1.793 | 1.528 | 1.303 | 1.095
x2 = 0.4375 | 805.3 | 801.03 | 796.6 | 792.53 | 1.367 | 1.184 | 1.021 | 0.895
x2 = 0.5661 | 803.5 | 799.1 | 794.57 | 790.44 | 0.901 | 0.818 | 0.746 | 0.684
x2 = 0.6502 | 802.41 | 797.92 | 793.35 | 789.19 | 0.712 | 0.659 | 0.613 | 0.581
x2 = 0.7371 | 801.4 | 796.84 | 792.26 | 788.05 | 0.592 | 0.552 | 0.513 | 0.481
x2 = 0.8498 | 800.4 | 795.59 | 790.95 | 786.69 | 0.451 | 0.434 | 0.416 | 0.399
x2 = 0.9401 | 799.73 | 794.95 | 790.35 | 786 | 0.398 | 0.386 | 0.373 | 0.361

CCCCC(C)O (stereo not given) [2-hexanol] + CCC(C)=O
Details | mass density, 298.15 K [kg/m3] | mass density, 303.15 K [kg/m3] | mass density, 308.15 K [kg/m3] | mass density, 313.15 K [kg/m3] | viscosity, 298.15 K [mPa·s] | viscosity, 303.15 K [mPa·s] | viscosity, 308.15 K [mPa·s] | viscosity, 313.15 K [mPa·s]
x2 = 0 | 810.14 | 806.13 | 802.06 | 797.96 | 4.101 | 3.411 | 2.819 | 2.219
x2 = 0.0874 | 808.49 | 804.57 | 800.48 | 796.34 | 3.085 | 2.587 | 2.145 | 1.714
x2 = 0.1661 | 807.21 | 803.17 | 799.05 | 794.87 | 2.413 | 2.035 | 1.684 | 1.358
x2 = 0.2482 | 805.92 | 801.8 | 797.59 | 793.4 | 1.909 | 1.63 | 1.361 | 1.086
x2 = 0.355 | 804.36 | 800.03 | 795.83 | 791.6 | 1.454 | 1.232 | 1.027 | 0.826
x2 = 0.4463 | 803.2 | 798.8 | 794.5 | 790.25 | 1.178 | 0.998 | 0.831 | 0.692
x2 = 0.5671 | 801.84 | 797.36 | 792.94 | 788.71 | 0.889 | 0.775 | 0.678 | 0.592
x2 = 0.6534 | 801.04 | 796.47 | 792.02 | 787.75 | 0.718 | 0.647 | 0.587 | 0.536
x2 = 0.7422 | 800.4 | 795.74 | 791.22 | 786.94 | 0.603 | 0.564 | 0.525 | 0.487
x2 = 0.8547 | 799.91 | 795.09 | 790.45 | 786.14 | 0.505 | 0.479 | 0.449 | 0.419
x2 = 0.942 | 799.62 | 794.76 | 790.06 | 785.68 | 0.429 | 0.41 | 0.388 | 0.366

CCC(C)=O [butanone] + CC(C)O
Details | mass density, 298.15 K [kg/m3] | mass density, 303.15 K [kg/m3] | mass density, 308.15 K [kg/m3] | mass density, 313.15 K [kg/m3] | viscosity, 298.15 K [mPa·s] | viscosity, 303.15 K [mPa·s] | viscosity, 308.15 K [mPa·s] | viscosity, 313.15 K [mPa·s]
x1 = 0.0819 | 782.25 | 777.85 | 772.94 | 768.48 | 1.657 | 1.503 | 1.371 | 1.245
x1 = 0.1607 | 783.38 | 778.97 | 774.09 | 769.53 | 1.358 | 1.286 | 1.208 | 1.139
x1 = 0.24 | 784.62 | 780.11 | 775.17 | 770.66 | 1.142 | 1.11 | 1.077 | 1.041
x1 = 0.349 | 786.42 | 781.79 | 776.85 | 772.33 | 0.939 | 0.924 | 0.909 | 0.895
x1 = 0.4405 | 788.05 | 783.31 | 778.38 | 773.86 | 0.818 | 0.807 | 0.795 | 0.784
x1 = 0.5593 | 790.28 | 785.48 | 780.55 | 776.07 | 0.702 | 0.686 | 0.669 | 0.654
x1 = 0.6511 | 792.07 | 787.24 | 782.38 | 777.9 | 0.626 | 0.607 | 0.587 | 0.569
x1 = 0.7392 | 793.87 | 789.03 | 784.21 | 779.74 | 0.551 | 0.539 | 0.527 | 0.515
x1 = 0.8496 | 796.19 | 791.36 | 786.58 | 782.16 | 0.465 | 0.456 | 0.448 | 0.44
x1 = 0.937 | 798.09 | 793.22 | 788.46 | 784.11 | 0.417 | 0.406 | 0.396 | 0.386
x1 = 1 | 799.48 | 794.63 | 789.9 | 785.52 | 0.381 | 0.368 | 0.352 | 0.339

CCC(C)=O [butanone] + CCC(C)O
Details | mass density, 298.15 K [kg/m3] | mass density, 303.15 K [kg/m3] | mass density, 308.15 K [kg/m3] | mass density, 313.15 K [kg/m3] | viscosity, 298.15 K [mPa·s] | viscosity, 303.15 K [mPa·s] | viscosity, 308.15 K [mPa·s] | viscosity, 313.15 K [mPa·s]
x1 = 0.0833 | 801.7 | 797.1 | 792.46 | 788.12 | 2.502 | 2.135 | 1.832 | 1.525
x1 = 0.161 | 800.91 | 796.26 | 791.63 | 787.2 | 2.081 | 1.791 | 1.571 | 1.359
x1 = 0.2402 | 800.19 | 795.56 | 790.81 | 786.44 | 1.749 | 1.533 | 1.355 | 1.206
x1 = 0.3498 | 799.4 | 794.77 | 789.93 | 785.56 | 1.428 | 1.284 | 1.143 | 1.018
x1 = 0.441 | 798.92 | 794.27 | 789.42 | 785.03 | 1.213 | 1.078 | 0.976 | 0.895
x1 = 0.5609 | 798.55 | 793.86 | 789.01 | 784.61 | 0.981 | 0.886 | 0.82 | 0.76
x1 = 0.6498 | 798.44 | 793.74 | 788.83 | 784.44 | 0.824 | 0.768 | 0.706 | 0.664
x1 = 0.7398 | 798.47 | 793.74 | 788.83 | 784.43 | 0.671 | 0.638 | 0.603 | 0.572
x1 = 0.8501 | 798.73 | 793.92 | 789.09 | 784.68 | 0.528 | 0.506 | 0.486 | 0.465
x1 = 0.9405 | 799.06 | 794.23 | 789.47 | 785.05 | 0.434 | 0.417 | 0.397 | 0.38
x1 = 1 | 799.48 | 794.63 | 789.9 | 785.52 | 0.381 | 0.368 | 0.352 | 0.339

CCCC(C)O (stereo not given) [pentan-2-ol] + CCC(C)=O
Details | mass density, 298.15 K [kg/m3] | mass density, 303.15 K [kg/m3] | mass density, 308.15 K [kg/m3] | mass density, 313.15 K [kg/m3] | viscosity, 298.15 K [mPa·s] | viscosity, 303.15 K [mPa·s] | viscosity, 308.15 K [mPa·s] | viscosity, 313.15 K [mPa·s]
x2 = 0 | 805.41 | 801.21 | 796.64 | 792.51 | 3.478 | 2.801 | 2.335 | 1.993
x2 = 0.0852 | 804.2 | 799.84 | 795.37 | 791.21 | 2.516 | 2.204 | 1.894 | 1.662
x2 = 0.1643 | 803.1 | 798.76 | 794.25 | 790.05 | 2.008 | 1.786 | 1.581 | 1.429
x2 = 0.2456 | 802.1 | 797.76 | 793.2 | 788.94 | 1.592 | 1.439 | 1.316 | 1.217
x2 = 0.3511 | 801 | 796.62 | 791.97 | 787.7 | 1.183 | 1.103 | 1.038 | 0.992
x2 = 0.4422 | 800.24 | 795.77 | 791.11 | 786.83 | 0.92 | 0.891 | 0.86 | 0.832
x2 = 0.5632 | 799.6 | 794.94 | 790.27 | 785.94 | 0.702 | 0.693 | 0.683 | 0.673
x2 = 0.6508 | 799.3 | 794.56 | 789.87 | 785.47 | 0.62 | 0.608 | 0.595 | 0.583
x2 = 0.7416 | 799.14 | 794.34 | 789.63 | 785.18 | 0.569 | 0.548 | 0.528 | 0.507
x2 = 0.8512 | 799.2 | 794.26 | 789.56 | 785.05 | 0.48 | 0.463 | 0.445 | 0.427
x2 = 0.941 | 799.31 | 794.39 | 789.76 | 785.17 | 0.428 | 0.407 | 0.385 | 0.364

Source: the NIST ThermoML archive (doi:10.1016/j.tca.2012.12.008)
